Measurements taken from patent publication US20060159780A1, “Prevention and amelioration of acetaminophen toxicity with tea melanin” (National Chiao Tung University, priority 2005, published 2006).

Columns and labels:
CoQ10 = assay: Coenzymes Q assay in liver: CoQ10; type: in vivo, mice; conditions: NAPAP 400 mg/kg itself, FIG. 3
Procedure: (§1) Adult male ICR mice (30±5 g) were employed for all experiments. Animals were housed under controlled condition (25±2° C.) and 12 h light/dark cycle, and allowed free access to food and water, but fasted overnight before treatment. Animals were divided into several groups including control group (not receiving any treatment), negative control (receiving TSM alone), positive control (receiving only NAPAP), and experimental groups receiving NAPAP and TSM together. Each experimental group consisted of 6 mice. NAPAP was dissolved in normal saline (pH 7.4) and administered inraperitonially (i.p.) with a dose of 400 mg/kg. TSM was dissolved in distillate water at pH 7.2 and administered i.p. with doses of 10, 20, 30, or 40 mg/kg 2 h before intoxication. All animals were sacrificed by ether anesthesia 24 h after the NAPAP exposure. Blood samples were withdrawn by cardiac puncture for determination of alanine aminotransferase (ALT) activity using commercially available kit (Sigma 505-P). Liver was isolated and perfused with normal saline to wash out the blood. […]
(§2) Determination of reduced forms of CoQ9 and CoQ10 was carried out by the method of Ikenoya et al. (Ikenoya, S. et al., Chem Pharm Bull. 1981, 29, 158-164). […] The extract was analyzed using HPLC with Jasco 840 EC detector and Chemosorb ODS-H column (4.6×250 mm). […]

CoQ9 = assay: Coenzymes Q assay in liver: CoQ9; type: in vivo, mice; conditions: NAPAP 400 mg/kg itself, FIG. 3
Procedure: as §1, §2

[1] = system: alanine aminotransferase (ALT) activity; assay: Alanine aminotransferase (ALT) activity in blood of NAPAP-intoxicated mice; type: in vivo; conditions: NAPAP 400 mg/kg i.p. alone; 24 h of exposure; mean ± SEM
Procedure: (§3) Adult male ICR mice (30±5 g) were employed for all experiments. Animals were housed under controlled condition (25±2° C.) and 12 h light/dark cycle, and allowed free access to food and water, but fasted overnight before treatment. Animals were divided into several groups including control group (not receiving any treatment), negative control (receiving TSM alone), positive control (receiving only NAPAP), and experimental groups receiving NAPAP and TSM together. Each experimental group consisted of 6 mice. NAPAP was dissolved in normal saline (pH 7.4) and administered inraperitonially (i.p.) with a dose of 400 mg/kg. TSM was dissolved in distillate water at pH 7.2 and administered i.p. with doses of 10, 20, 30, or 40 mg/kg 2 h before intoxication. All animals were sacrificed by ether anesthesia 24 h after the NAPAP exposure. Blood samples were withdrawn by cardiac puncture for determination of alanine aminotransferase (ALT) activity using commercially available kit (Sigma 505-P). Liver was isolated and perfused with normal saline to wash out the blood. It was then used for determination of GSH, oxidized glutathione (GSSG), superoxide dismutase (SOD), thiobarbituric acid reactive substances (TBARS), and reduced forms of coenzymes Q9 (CoQ9) and Q10 (CoQ10).

ICR mice = assay: Toxicity of NAPAP in mice: mortality and behaviour; type: in vivo
Procedure: as §3
The behavior of the animals in experimental group resembled the control group by movement activity. […]

[2] = system: superoxide dismutase (SOD); assay: Superoxide dismutase assay in mouse liver; type: in vivo, mice; conditions: NAPAP alone, FIG. 2
Procedure: as §1, with “exposure.” for “exposure. Blood samples were withdrawn by cardiac puncture for determination of alanine aminotransferase (ALT) activity using commercially available kit (Sigma 505-P). Liver was isolated and perfused with normal saline to wash out the blood.”
Determination of superoxide dismutase activity in mouse liver was based on inhibition of nitrite formation in reaction of oxidation of hydroxylammonium with superoxide anion radical (Elstner, E. F. and Heupel, A. Anal. Biochem. 1976, 70, 616-620). […] Optical absorbance at 530 nm was measured with Ultrospec III spectrophotometer (Pharmacia, LKB). The results were expressed as units of SOD activity calculated per milligram of protein.

[3] = system: antibody-forming cells (AFC) of splenocytes; assay: Antibody-producing response (AFC plaque assay) after SRBC sensitization; type: in vivo; conditions: NAPAP 400 mg/kg i.p.; SRBC-sensitized ICR mice
Procedure: Experiments were performed on 10 groups of intact ICR mice consisting of 4 animals each. The first 5 groups were injected i.p. with the following single doses of TSM: 0, 10, 20, 30, and 40 mg/kg. The second 5 groups were injected similarly to the first groups with TSM, but after 2 h animals were again injected (i.p.) with 400 mg/kg NAPAP. One day after administration of TSM or TSM+NAPAP, mice were injected into the tail vein with 1×10^8 sheep red blood cells (SRBC) prepared in 0.2 mL of saline. An additional 4 animals received only SRBC (antigen control). Four days after their sensitization with SRBC, animals were sacrificed, and their spleens were removed. Single splenocytes were prepared from each spleen in 5 mL of RPMI-1640 media. Enumeration of the antibody-forming cells (AFC) was performed using a plaque assay (Jerne, N. K. and Nordin, A. A. Science 1963, 140, 405). AFC values were calculated for 10^6 splenocytes.

hepatic GSH = assay: Hepatic GSH assay; type: in vivo, mice
Procedure: as §1, with “exposure.” for “exposure. Blood samples were withdrawn by cardiac puncture for determination of alanine aminotransferase (ALT) activity using commercially available kit (Sigma 505-P). Liver was isolated and perfused with normal saline to wash out the blood.”
(§4) Frozen liver tissue was homogenized in 5% trichloroacetic acid (TCA) supplemented with 5 mM EDTA under a stream of nitrogen gas, then centrifuged at 20,000 g for 10 min at 4° C. […] The total hepatic glutathione level representing the sum of GSH and GSSG was determined using dithiobis-2-nitrobenzoic acid (Griffith, O. W. Anal. Biochem. 1980, 106, 207-212). The GSSG level was determined after elimination of GSH by reaction with 2-vinylpyridine, and the actual GSH level was calculated by subtracting the GSSG level from the total glutathione.

[4] = system: oxidized glutathione (GSSG); assay: Hepatic GSSG assay; type: in vivo, mice; conditions: NAPAP 400 mg/kg i.p. alone; liver, 24 h; mean ± SEM
Procedure: as §1, with “exposure.” for “exposure. Blood samples were withdrawn by cardiac puncture for determination of alanine aminotransferase (ALT) activity using commercially available kit (Sigma 505-P). Liver was isolated and perfused with normal saline to wash out the blood.”
as §4

## CC(=O)Nc1ccc(O)cc1 [NAPAP, N-Acetyl-p-aminophenol]
CoQ10
  coenzyme Q10 content diminished, compared to negative control: 55%
CoQ9
  content of CoQ9 diminished, compared to negative control: 60%
[1]
  ALT: 2043 U/L
ICR mice; NAPAP 400 mg/kg administered alone
  Animal lethality: 66%
ICR mice; NAPAP 400 mg/kg i.p. alone, 24 h of exposure
  Mortality (dead/total): 2/6
[2]
  decrease of SOD activity as compared to control: ~4 fold
[3]
  suppression of AFC against the antigen control level: 26%
Hepatic GSH; NAPAP 400 mg/kg i.p. alone, liver, 24 h, mean ± SEM
  GSH: 13 ± 1 nmol/mg prot.
Hepatic GSH; NAPAP alone, 24 h after administration
  depletion of GSH level as compared to control: 2.6 fold
[4]
  GSSG: 3.2 ± 0.4 nmol/mg prot.
